Test results: the supplement of paper PMC10307832

What was measured:
Assay in all cases: relative viability (nuclei count vs DMSO), 5 days (fraction); higher = more cells survive
[1] = compound: Cn1cnc2c(F)c(Nc3ccc(Br)cc3Cl)c(C(=O)NOCCO)cc21 [Selumetinib] + C[C@@H](Oc1cc(-c2cnn(C3CCNCC3)c2)cnc1N)c1c(Cl)ccc(F)c1Cl [Crizotinib] (partner 1 µM)
Outline: (§1)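 Dosing by pin tool came one day after lung cancer cell lines were seeded in 1536-well plates, using either one drug or a fixed anchor-drug dose plus five library-drug doses (not always all listed) in √10 steps. After 5 days, nuclei were counted on 4× images. Relative viability is treated-well nuclei count divided by vehicle-well nuclei count, and values are medians of duplicate plates.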

[2] = compound: CC1(C)CCC(CN2CCN(c3ccc(C(=O)NS(=O)(=O)c4ccc(NCC5CCOCC5)c([N+](=O)[O-])c4)c(Oc4cnc5[nH]ccc5c4)c3)CC2)=C(c2ccc(Cl)cc2)C1 [Venetoclax] + C[C@]1(O)C[C@@H](c2nc(-c3ccc4ccc(-c5ccccc5)nc4c3)c3c(N)nccn32)C1 [Linsitinib] (partner 1 µM)
Outline: as §1

[3] = compound: Cn1cnc2c(F)c(Nc3ccc(Br)cc3Cl)c(C(=O)NOCCO)cc21 [Selumetinib] + Nc1nc2[nH]cc(CCc3ccc(C(=O)N[C@@H](CCC(=O)O)C(=O)O)cc3)c2c(=O)[nH]1 [Pemetrexed] (partner 0.2 µM)
Outline: as §1

[4] = compound: Cn1cnc2c(F)c(Nc3ccc(Br)cc3Cl)c(C(=O)NOCCO)cc21 [Selumetinib] + O=C(c1cc(Cc2n[nH]c(=O)c3ccccc23)ccc1F)N1CCN(C(=O)C2CC2)CC1 [Olaparib] (partner 8 µM)
Outline: as §1

## NCI-H1666
[1]; first compound 0.02 µM
  relative viability: 0.956
[1]; first compound 0.06325 µM
  relative viability: 0.791
[1]; first compound 0.2 µM
  relative viability: 0.829
[1]; first compound 0.6325 µM
  relative viability: 0.614
[2]; first compound 0.01 µM
  relative viability: 0.909
[2]; first compound 0.03162 µM
  relative viability: 0.864
[2]; first compound 0.1 µM
  relative viability: 0.731
[2]; first compound 0.3162 µM
  relative viability: 0.759
[2]; first compound 1 µM
  relative viability: 0.745
[3]; first compound 0.02 µM
  relative viability: 0.811
[3]; first compound 0.06325 µM
  relative viability: 0.775
[3]; first compound 0.2 µM
  relative viability: 0.765
[3]; first compound 0.6325 µM
  relative viability: 0.755
[4]; first compound 0.02 µM
  relative viability: 0.722
[4]; first compound 0.06325 µM
  relative viability: 0.711
[4]; first compound 0.2 µM
  relative viability: 0.715
[4]; first compound 0.6325 µM
  relative viability: 0.686

## NCI-H2085
[1]; first compound 0.02 µM
  relative viability: 0.889
[1]; first compound 0.06325 µM
  relative viability: 0.89
[1]; first compound 0.2 µM
  relative viability: 0.822
[1]; first compound 0.6325 µM
  relative viability: 0.704
[2]; first compound 0.01 µM
  relative viability: 0.881
[2]; first compound 0.03162 µM
  relative viability: 0.782
[2]; first compound 0.1 µM
  relative viability: 0.853
[2]; first compound 0.3162 µM
  relative viability: 0.909
[2]; first compound 1 µM
  relative viability: 0.853
[3]; first compound 0.02 µM
  relative viability: 0.77
[3]; first compound 0.06325 µM
  relative viability: 0.789
[3]; first compound 0.2 µM
  relative viability: 0.677
[3]; first compound 0.6325 µM
  relative viability: 0.627
[4]; first compound 0.02 µM
  relative viability: 0.704
[4]; first compound 0.06325 µM
  relative viability: 0.771
[4]; first compound 0.2 µM
  relative viability: 0.689
[4]; first compound 0.6325 µM
  relative viability: 0.671

## LXF-289
[1]; first compound 0.02 µM
  relative viability: 0.872
[1]; first compound 0.06325 µM
  relative viability: 0.7
[1]; first compound 0.2 µM
  relative viability: 0.664
[1]; first compound 0.6325 µM
  relative viability: 0.616
[2]; first compound 0.01 µM
  relative viability: 0.973
[2]; first compound 0.03162 µM
  relative viability: 0.955
[2]; first compound 0.1 µM
  relative viability: 0.895
[2]; first compound 0.3162 µM
  relative viability: 0.932
[2]; first compound 1 µM
  relative viability: 0.856
[3]; first compound 0.02 µM
  relative viability: 0.865
[3]; first compound 0.06325 µM
  relative viability: 0.848
[3]; first compound 0.2 µM
  relative viability: 0.763
[3]; first compound 0.6325 µM
  relative viability: 0.808
[4]; first compound 0.02 µM
  relative viability: 1.04
[4]; first compound 0.06325 µM
  relative viability: 1.01
[4]; first compound 0.2 µM
  relative viability: 0.963
[4]; first compound 0.6325 µM
  relative viability: 1.04

## NCI-H322M
[1]; first compound 0.02 µM
  relative viability: 0.708
[1]; first compound 0.06325 µM
  relative viability: 0.807
[1]; first compound 0.2 µM
  relative viability: 0.796
[1]; first compound 0.6325 µM
  relative viability: 0.828
[2]; first compound 0.01 µM
  relative viability: 0.913
[2]; first compound 0.03162 µM
  relative viability: 0.916
[2]; first compound 0.1 µM
  relative viability: 0.889
[2]; first compound 0.3162 µM
  relative viability: 0.891
[2]; first compound 1 µM
  relative viability: 0.852
[3]; first compound 0.02 µM
  relative viability: 0.546
[3]; first compound 0.06325 µM
  relative viability: 0.524
[3]; first compound 0.2 µM
  relative viability: 0.564
[3]; first compound 0.6325 µM
  relative viability: 0.562
[4]; first compound 0.02 µM
  relative viability: 0.662
[4]; first compound 0.06325 µM
  relative viability: 0.63
[4]; first compound 0.2 µM
  relative viability: 0.564
[4]; first compound 0.6325 µM
  relative viability: 0.599

## LU99A
[1]; first compound 0.02 µM
  relative viability: 0.615
[1]; first compound 0.06325 µM
  relative viability: 0.556
[1]; first compound 0.2 µM
  relative viability: 0.558
[1]; first compound 0.6325 µM
  relative viability: 0.544
[2]; first compound 0.01 µM
  relative viability: 0.482
[2]; first compound 0.03162 µM
  relative viability: 0.604
[2]; first compound 0.1 µM
  relative viability: 0.505
[2]; first compound 0.3162 µM
  relative viability: 0.56
[2]; first compound 1 µM
  relative viability: 0.55
[3]; first compound 0.02 µM
  relative viability: 0.195
[3]; first compound 0.06325 µM
  relative viability: 0.184
[3]; first compound 0.2 µM
  relative viability: 0.184
[3]; first compound 0.6325 µM
  relative viability: 0.245
[4]; first compound 0.02 µM
  relative viability: 0.253
[4]; first compound 0.06325 µM
  relative viability: 0.265
[4]; first compound 0.2 µM
  relative viability: 0.287
[4]; first compound 0.6325 µM
  relative viability: 0.267

## NCI-H650
[1]; first compound 0.02 µM
  relative viability: 0.793
[1]; first compound 0.06325 µM
  relative viability: 0.593
[1]; first compound 0.2 µM
  relative viability: 0.575
[1]; first compound 0.6325 µM
  relative viability: 0.67
[2]; first compound 0.01 µM
  relative viability: 0.912
[2]; first compound 0.03162 µM
  relative viability: 0.843
[2]; first compound 0.3162 µM
  relative viability: 1.04
[2]; first compound 1 µM
  relative viability: 0.754
[3]; first compound 0.02 µM
  relative viability: 1.05
[3]; first compound 0.06325 µM
  relative viability: 1.25
[3]; first compound 0.2 µM
  relative viability: 1.19
[3]; first compound 0.6325 µM
  relative viability: 1.16
[4]; first compound 0.02 µM
  relative viability: 0.478
[4]; first compound 0.06325 µM
  relative viability: 0.514
[4]; first compound 0.2 µM
  relative viability: 0.47
[4]; first compound 0.6325 µM
  relative viability: 0.526

## PC-14
[1]; first compound 0.02 µM
  relative viability: 0.867
[1]; first compound 0.06325 µM
  relative viability: 0.814
[1]; first compound 0.2 µM
  relative viability: 0.961
[1]; first compound 0.6325 µM
  relative viability: 0.949
[2]; first compound 0.01 µM
  relative viability: 0.925
[2]; first compound 0.03162 µM
  relative viability: 0.993
[2]; first compound 0.1 µM
  relative viability: 1.04
[2]; first compound 0.3162 µM
  relative viability: 0.818
[2]; first compound 1 µM
  relative viability: 0.811
[3]; first compound 0.02 µM
  relative viability: 0.123
[3]; first compound 0.06325 µM
  relative viability: 0.114
[3]; first compound 0.2 µM
  relative viability: 0.107
[3]; first compound 0.6325 µM
  relative viability: 0.127
[4]; first compound 0.02 µM
  relative viability: 0.294
[4]; first compound 0.06325 µM
  relative viability: 0.226
[4]; first compound 0.2 µM
  relative viability: 0.252
[4]; first compound 0.6325 µM
  relative viability: 0.241

## HARA
[1]; first compound 0.02 µM
  relative viability: 1.02
[1]; first compound 0.06325 µM
  relative viability: 1.02
[1]; first compound 0.2 µM
  relative viability: 0.876
[1]; first compound 0.6325 µM
  relative viability: 0.602
[2]; first compound 0.01 µM
  relative viability: 0.833
[2]; first compound 0.03162 µM
  relative viability: 0.93
[2]; first compound 0.1 µM
  relative viability: 0.911
[2]; first compound 0.3162 µM
  relative viability: 0.927
[2]; first compound 1 µM
  relative viability: 0.928
[3]; first compound 0.02 µM
  relative viability: 0.24
[3]; first compound 0.06325 µM
  relative viability: 0.179
[3]; first compound 0.2 µM
  relative viability: 0.224
[3]; first compound 0.6325 µM
  relative viability: 0.217
[4]; first compound 0.02 µM
  relative viability: 0.768
[4]; first compound 0.06325 µM
  relative viability: 0.727
[4]; first compound 0.2 µM
  relative viability: 0.651
[4]; first compound 0.6325 µM
  relative viability: 0.466
